Patent US20020137929A1, “1 - (3-heterocyclylphenyl) isothiourea, -isourea, -guanidine and -amidine herbicidal agents” (Intellectual Property Department, BASF Aktiengesellschaft, priority 1998, published 2002)

How the values were obtained:
CASOB (Sicklepod) = experiment: Postemergence herbicidal evaluation; assay type: in vivo, Cassia obtusifolia
Outline: (§1)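 Two-week-old seedlings sprayed with compound in 50/50 acetone/water plus 0.5% TWEEN 20, at about 0.0156 to 0.500 kg/ha, nozzle at 40 psi. Kept in greenhouse; rated visually 4-5 weeks after treatment on a 0-9 scale versus control, repeat tests averaged.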

ZEAMX (Corn, Field) = experiment: Preemergence herbicidal evaluation; assay type: in vivo, Zea mays; settings: rated 4-5 weeks after treatment
Outline: (§2)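 In this greenhouse assay, monocot and dicot seeds are planted in soil and treated prior to emergence with an aqueous acetone spray (about 0.0156-0.500 kg/ha). Plants are assessed visually against control on a 0-9 scale after 4-5 weeks.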

CYPIR (Rice Flatsedge) = experiment: Preemergence weed control under flooded paddy conditions; assay type: in vivo, Cyperus iria; settings: rated 3-4 weeks after treatment
Outline: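 Silt loam, seeds in top 0.5 cm; flood held 1.5-3 cm; test cpd as acetone/water 50/50 into flood water, ~0.0313-0.500 kg/ha a.i.; greenhouse 3-4 wk; visual 0-9 score vs control.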

ORYSAT (Rice, Tebonnet) [1] = experiment: Postemergence herbicidal evaluation; assay type: in vivo, Oryza sativa, (L.) Tebonnet
Outline: as §1

[2] = tested on: CHEAL (Lambsquarters, Common); experiment: Postemergence herbicidal evaluation; assay type: in vivo, Chenopodium album
Outline: as §1

ECHCG (Barnyardgrass) = experiment: Postemergence herbicidal evaluation; assay type: in vivo, Echinochloa crus-galli
Outline: as §1

CYPSE (Flatsedge) = experiment: Postemergence weed control under flooded paddy conditions; assay type: in vivo, Cyperus serotinus; settings: postemergence weeds, 3-4 weeks after treatment
Outline: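 With weeds 3 to 5 cm tall and rice at the 1.5 to 2.5 leaf stage, containers were flooded and water held 1.5 to 3 cm above soil. Compounds in 50/50 v/v aqueous/acetone went into the flood water at about 0.0313 to 0.500 kg/ha a.i. Effects were visually rated 0–9 against controls after three to four weeks in the greenhouse.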

[3] = tested on: SAGPY (Arrowhead (Pygmaea)); experiment: Preemergence weed control under flooded paddy conditions; assay type: in vivo, Sagittaria pygmaea; settings: rated 3-4 weeks after treatment
Outline: (§3)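 Flooded-pot preemergence screen with silt loam and seeds in the upper 0.5 cm. Dose about 0.0313 to 0.500 kg/ha, delivered into flood water; visual 0-9 score after 3 to 4 weeks.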

MOOVA (Monochoria) = experiment: as above; assay type: in vivo, Monochoria vaginalis; settings: rated 3-4 weeks after treatment
Outline: as §3

SETVI (Foxtail, Green) = experiment: Preemergence herbicidal evaluation; assay type: in vivo, Setaria viridis; settings: rated 4-5 weeks after treatment
Outline: as §2

[4] = tested on: TRZAWR (Wheat, Winter, cv Riband); experiment: Preemergence herbicidal evaluation; assay type: in vivo, Triticum aestivum; settings: rated 4-5 weeks after treatment
Outline: as §2

ORYSAT (Rice, Tebonnet) [5] = experiment: Preemergence herbicidal evaluation; assay type: in vivo, Oryza sativa, (L.) Tebonnet; settings: rated 4-5 weeks after treatment
Outline: as §2

[6] = tested on: GLXMAW (Soybean, Williams); experiment: Preemergence herbicidal evaluation; assay type: in vivo, Glycine max, (L.) Merr. cv Williams; settings: rated 4-5 weeks after treatment
Outline: as §2

GALAP (Galium) = experiment: Preemergence herbicidal evaluation; assay type: in vivo, Galium aparine; settings: rated 4-5 weeks after treatment
Outline: as §2

Cn1c(C(F)(F)F)cc(=O)n(-c2cc(N=C3SCC(=O)N3[C@@H](Cc3ccccc3)C(=O)O)c(Cl)cc2F)c1=O [Compound 53, α-Benzyl-2-{{2-chloro-5-[3,6-dihydro-3-methyl-2,6-dioxo-4-(trifluoromethyl)-1(2H)-pyrimidinyl]-4-fluorophenyl}imino}-4-oxo-3-thiazolidineacetic acid, L-]
3.5: Postemergence herbicidal rating ORYSAT (ORYSAT (Rice, Tebonnet) [1]; Rate 0.0630 kg/ha)
0.0: Herbicidal rating CYPSE (CYPSE (Flatsedge); rate 0.0313 kg/ha) | Herbicidal rating CYPSE (CYPSE (Flatsedge); rate 0.0625 kg/ha) | Herbicidal rating CYPSE (CYPSE (Flatsedge); rate 0.1250 kg/ha) | Herbicidal rating CYPSE (CYPSE (Flatsedge); rate 0.2500 kg/ha) | Herbicidal rating SAGPY ([3]; 0.0313 kg/ha) | Herbicidal rating SAGPY ([3]; 0.0625 kg/ha) | Herbicidal rating SAGPY ([3]; 0.1250 kg/ha) | Herbicidal rating SAGPY ([3]; 0.2500 kg/ha) | Preemergence herbicidal rating TRZAWR ([4]; rate 0.0313 kg/ha) | Preemergence herbicidal rating ORYSAT (ORYSAT (Rice, Tebonnet) [5]; rate 0.0313 kg/ha) | Preemergence herbicidal rating GLXMAW ([6]; rate 0.0313 kg/ha) | Preemergence herbicidal rating GLXMAW ([6]; rate 0.0625 kg/ha) | Preemergence herbicidal rating GALAP (GALAP (Galium); rate 0.0313 kg/ha) | Preemergence herbicidal rating GALAP (GALAP (Galium); rate 0.0625 kg/ha) | Preemergence herbicidal rating GALAP (GALAP (Galium); rate 0.1250 kg/ha)
2.0: Herbicidal rating CYPIR (CYPIR (Rice Flatsedge); 0.0313 kg/ha) | Herbicidal rating CYPIR (CYPIR (Rice Flatsedge); 0.0625 kg/ha) | Postemergence herbicidal rating ORYSAT (ORYSAT (Rice, Tebonnet) [1]; Rate 0.0158 kg/ha) | Postemergence herbicidal rating ECHCG (ECHCG (Barnyardgrass); Rate 0.0158 kg/ha) | Herbicidal rating MOOVA (MOOVA (Monochoria); 0.0313 kg/ha) | Herbicidal rating MOOVA (MOOVA (Monochoria); 0.0625 kg/ha) | Preemergence herbicidal rating TRZAWR ([4]; rate 0.1250 kg/ha) | Preemergence herbicidal rating GLXMAW ([6]; rate 0.1250 kg/ha)
2.5: Postemergence herbicidal rating ORYSAT (ORYSAT (Rice, Tebonnet) [1]; Rate 0.0315 kg/ha)
6.0: Preemergence herbicidal rating ZEAMX (ZEAMX (Corn, Field); rate 0.2500 kg/ha)
3.0: Postemergence herbicidal rating ECHCG (ECHCG (Barnyardgrass); Rate 0.0315 kg/ha)
9.0: Postemergence herbicidal rating CASOB (CASOB (Sicklepod); Rate 0.0630 kg/ha) | Herbicidal rating CYPIR (CYPIR (Rice Flatsedge); 0.1250 kg/ha) | Herbicidal rating CYPIR (CYPIR (Rice Flatsedge); 0.2500 kg/ha) | Postemergence herbicidal rating CHEAL ([2]; Rate 0.0315 kg/ha) | Postemergence herbicidal rating CHEAL ([2]; Rate 0.0630 kg/ha) | Postemergence herbicidal rating ECHCG (ECHCG (Barnyardgrass); Rate 0.0630 kg/ha) | Herbicidal rating MOOVA (MOOVA (Monochoria); 0.1250 kg/ha) | Herbicidal rating MOOVA (MOOVA (Monochoria); 0.2500 kg/ha) | Preemergence herbicidal rating SETVI (SETVI (Foxtail, Green); rate 0.2500 kg/ha)
7.0: Postemergence herbicidal rating CASOB (CASOB (Sicklepod); Rate 0.0315 kg/ha) | Postemergence herbicidal rating CHEAL ([2]; Rate 0.0158 kg/ha) | Preemergence herbicidal rating SETVI (SETVI (Foxtail, Green); rate 0.1250 kg/ha) | Preemergence herbicidal rating TRZAWR ([4]; rate 0.2500 kg/ha) | Preemergence herbicidal rating ORYSAT (ORYSAT (Rice, Tebonnet) [5]; rate 0.2500 kg/ha) | Preemergence herbicidal rating GALAP (GALAP (Galium); rate 0.2500 kg/ha)
4.0: Postemergence herbicidal rating CASOB (CASOB (Sicklepod); Rate 0.0158 kg/ha) | Preemergence herbicidal rating SETVI (SETVI (Foxtail, Green); rate 0.0625 kg/ha) | Preemergence herbicidal rating GLXMAW ([6]; rate 0.2500 kg/ha)
5.0: Preemergence herbicidal rating ZEAMX (ZEAMX (Corn, Field); rate 0.1250 kg/ha) | Preemergence herbicidal rating ORYSAT (ORYSAT (Rice, Tebonnet) [5]; rate 0.1250 kg/ha)
1.0: Preemergence herbicidal rating ZEAMX (ZEAMX (Corn, Field); rate 0.0313 kg/ha) | Preemergence herbicidal rating ZEAMX (ZEAMX (Corn, Field); rate 0.0625 kg/ha) | Preemergence herbicidal rating SETVI (SETVI (Foxtail, Green); rate 0.0313 kg/ha) | Preemergence herbicidal rating TRZAWR ([4]; rate 0.0625 kg/ha) | Preemergence herbicidal rating ORYSAT (ORYSAT (Rice, Tebonnet) [5]; rate 0.0625 kg/ha)
